Source: paper PMC5786495 (Cell, 2017)

Test system: NKI2 TCR-transduced peripheral blood lymphocytes
Experiment: IFNγ production by NKI2-transduced lymphocytes with peptide-loaded JY cells
Format: cell-based, human
Settings: NKI2 transduced T cells

ALDSRSEHFM
potency of stimulation relative to CDK4 neoantigen ALDPHSGHFV: as potently as the CDK4 neoantigen
